In brackets after ≈: the same amount, converted by molar mass. Where two headings read alike, the source gives them in different places. Where a SMILES comes first, the peptide text is derived from it. [ ]: non-standard residue; d: D form. Aib = CC(C)(N)C(=O)O
Assays:
A. baumannii ATCC 19606 = system: A. baumannii ATCC 19606
Procedure: (§1) Antimicrobial susceptibility was evaluated by the broth microdilution assay to determine the MIC as already described by Buommino et al.[71] The bacterial suspension in Muller Hinton (MH) at a concentration of 2 × 10^6 cell/mL in the mid-log phase was prepared. Aliquots of 50 μL of the bacterial suspension were added to 50 μL of MH containing serial 2-fold dilutions of the peptides (from 100 to 0.78 μM) that were previously prepared in a 96-well plate. […] Each measurement was performed in triplicate. MICs were obtained from three identical readings of four independent experiments. The antibiofilm activity of the tested peptides was evaluated as reported by Casciaro et al.[72] Microbial culture was grown at 37 °C until it reached an optical density (OD) of 0.8 (λ = 590 nm), and then it was diluted to a cell density of 1 × 10^6 colony-forming units (CFUs)/mL.

S. aureus MDR #4 = system: S. aureus MDR #4
Procedure: as §1

S. aureus MDR #3 = system: S. aureus MDR #3
Procedure: as §1

S. aureus MDR #1 = system: S. aureus MDR #1
Procedure: as §1

E. coli ATCC 25922 = system: E. coli ATCC 25922
Procedure: as §1

P. aeruginosa ATCC 25853 = system: P. aeruginosa ATCC 25853
Procedure: as §1

S. aureus ATCC 25923 = system: S. aureus ATCC 25923
Procedure: as §1

S. aureus MDR #2 = system: S. aureus MDR #2
Procedure: as §1

[1] = system: S. epidermidis ATCC 12228
Procedure: as §1

in vitro = in vitro ADME, bovine; settings: serum
Procedure: The proteolytic stability of peptide 2 was evaluated in bovine serum (ThermoFisher Scientific, Milan, Italy). Peptide 2 was dissolved in sterile water (200 μM) and incubated with 50% bovine serum at 37 °C. The reaction mixture was incubated at different time intervals (1, 3, 4, 5, 16, and 24 h). An aliquot of the mixture was taken at each pre-established time point and MeCN was added to precipitate serum proteins. Then, the mixture was cooled to 4 °C, centrifuged for 15 min ([…]), and then the supernatant was checked by HPLC using a Phenomenex Jupiter column (4 μm Proteo 90 Å 250 × 21.20 mm) with a linear gradient of MeCN (0.1% TFA) and H2O (0.1% TFA) from 10 to 90% in 20 min and with a flow rate of 1 mL/min.[73] The percentage of the nondegraded peptide was calculated by integrating the peak area of each HPLC chromatogram. Data points are the mean ± SD of three different experiments.

HaCaT cells = system: HaCaT cells; parameters: method as in PMID 26162435; settings: previously described; cited from earlier work
[2] = MDR clinical isolate 13667073, broth microdilution, 16–18 h at 37 °C, three identical readings of four independent experiments
[3] = MDR clinical isolate 13164462, broth microdilution, 16–18 h at 37 °C, three identical readings of four independent experiments

CC[C@H](C)[C@H](NC(=O)CN)C(=O)N[C@@H](Cc1ccccc1)C(=O)N[C@@H](CO)C(=O)N[C@@H](CCCCN)C(=O)N[C@@H](CC(C)C)C(=O)N[C@@H](C)C(=O)NC(C)(C)C(=O)N[C@@H](CCCCN)C(=O)N[C@@H](CCCCN)C(=O)N[C@H](C(=O)N[C@@H](CCCCN)C(=O)N[C@@H](CC(N)=O)C(=O)N[C@@H](CC(C)C)C(=O)N[C@@H](CC(C)C)C(=O)N[C@H](C(=O)N[C@@H](CO)C(=O)NCC(=O)N[C@@H](CC(C)C)C(=O)N[C@@H](CCCCN)C(=O)NCC(N)=O)[C@@H](C)CC)[C@@H](C)CC [peptide 2] (H-GIFSKLA[Aib]KKIKNLLISGLKG-NH2)
MIC (A. baumannii ATCC 19606): 0.78 µM (≈ 1.73 µg/mL) | MIC (S. aureus MDR #4): 6.25 µM (≈ 13.8 µg/mL) | MIC (S. aureus MDR #3; [2]): 12.5 µM (≈ 27.7 µg/mL) | MIC (S. aureus MDR #1; [3]): 12.5 µM (≈ 27.7 µg/mL) | MIC (E. coli ATCC 25922): 0.78 µM (≈ 1.73 µg/mL) | MIC (P. aeruginosa ATCC 25853): 3.12 µM (≈ 6.9 µg/mL) | MIC (S. aureus ATCC 25923; broth microdilution, Muller Hinton, 16–18 h at 37 °C, three identical readings of four independent experiments): 12.5 µM (≈ 27.7 µg/mL) | MIC (S. aureus MDR #2; MDR clinical isolate 13165968, broth microdilution, 16–18 h at 37 °C, three identical readings of four independent experiments): 12.5 µM (≈ 27.7 µg/mL) | MIC [1]: 0.78 µM (≈ 1.73 µg/mL) | remaining at 1 h, 200 μM (in vitro): ~90% | remaining at 3 h, 200 μM (in vitro): ~75% | remaining at 4 h, 200 μM (in vitro): ~65% | remaining at 5 h, 200 μM (in vitro): ~40% | remaining at 16 h, 200 μM (in vitro): ~40% | remaining at 24 h, 200 μM (in vitro): ~15%

CC[C@H](C)[C@H](NC(=O)CN)C(=O)N[C@@H](Cc1ccccc1)C(=O)N[C@@H](CO)C(=O)N[C@@H](CCCCN)C(=O)N[C@@H](CC(C)C)C(=O)N[C@@H](C)C(=O)N1CCC[C@@H]1C(=O)N[C@@H](CCCCN)C(=O)N[C@@H](CCCCN)C(=O)N[C@H](C(=O)N[C@@H](CCCCN)C(=O)N[C@@H](CC(N)=O)C(=O)N[C@@H](CC(C)C)C(=O)N[C@@H](CC(C)C)C(=O)N[C@H](C(=O)N[C@@H](CO)C(=O)NCC(=O)N[C@@H](CC(C)C)C(=O)N[C@@H](CCCCN)C(=O)NCC(N)=O)[C@@H](C)CC)[C@@H](C)CC [peptide 4] (H-GIFSKLA[dP]KKIKNLLISGLKG-NH2)
MIC (A. baumannii ATCC 19606): 12.5 µM (≈ 27.8 µg/mL) | MIC (S. aureus MDR #4): >100 µM | MIC (S. aureus MDR #3; MDR #3): >100 µM | MIC (S. aureus MDR #1; MDR #1): >100 µM | MIC (E. coli ATCC 25922): 6.25 µM (≈ 13.9 µg/mL) | MIC (P. aeruginosa ATCC 25853): 25 µM (≈ 55.6 µg/mL) | MIC (S. aureus ATCC 25923; ATCC 25923): >100 µM | MIC (S. aureus MDR #2; MDR #2): >100 µM | MIC [1]: 12.5 µM (≈ 27.8 µg/mL)

CC[C@H](C)[C@H](NC(=O)CN)C(=O)N[C@@H](Cc1ccccc1)C(=O)N[C@@H](CO)C(=O)N[C@@H](CCCCN)C(=O)N[C@@H](CC(C)C)C(=O)N[C@@H](C)C(=O)N1CCC[C@H]1C(=O)N[C@@H](CCCCN)C(=O)N[C@@H](CCCCN)C(=O)N[C@H](C(=O)N[C@@H](CCCCN)C(=O)N[C@@H](CC(N)=O)C(=O)N[C@@H](CC(C)C)C(=O)N[C@@H](CC(C)C)C(=O)N[C@H](C(=O)N[C@@H](CO)C(=O)NCC(=O)N[C@@H](CC(C)C)C(=O)N[C@@H](CCCCN)C(=O)NCC(N)=O)[C@@H](C)CC)[C@@H](C)CC [peptide 3] (H-GIFSKLAPKKIKNLLISGLKG-NH2)
MIC (A. baumannii ATCC 19606): 1.56 µM (≈ 3.47 µg/mL) | MIC (S. aureus MDR #4): >100 µM | MIC (S. aureus MDR #3; MDR #3): >100 µM | MIC (S. aureus MDR #1; MDR #1): >100 µM | MIC (E. coli ATCC 25922): 3.12 µM (≈ 6.94 µg/mL) | MIC (P. aeruginosa ATCC 25853): 6.25 µM (≈ 13.9 µg/mL) | MIC (S. aureus ATCC 25923; ATCC 25923): >100 µM | MIC (S. aureus MDR #2; MDR #2): >100 µM | MIC [1]: 6.25 µM (≈ 13.9 µg/mL)

CC[C@H](C)[C@H](NC(=O)CN)C(=O)N[C@@H](Cc1ccccc1)C(=O)N[C@@H](CO)C(=O)N[C@@H](CCCCN)C(=O)N[C@@H](CC(C)C)C(=O)N[C@@H](C)C(=O)NCC(=O)N[C@@H](CCCCN)C(=O)N[C@@H](CCCCN)C(=O)N[C@H](C(=O)N[C@@H](CCCCN)C(=O)N[C@@H](CC(N)=O)C(=O)N[C@@H](CC(C)C)C(=O)N[C@@H](CC(C)C)C(=O)N[C@H](C(=O)N[C@@H](CO)C(=O)NCC(=O)N[C@@H](CC(C)C)C(=O)N[C@@H](CCCCN)C(=O)NCC(N)=O)[C@@H](C)CC)[C@@H](C)CC [peptide 1] (H-GIFSKLAGKKIKNLLISGLKG-NH2)
MIC (A. baumannii ATCC 19606): 1.56 µM (≈ 3.41 µg/mL) | MIC (S. aureus MDR #4): >100 µM | MIC (S. aureus MDR #3; [2]): 100 µM (≈ 218 µg/mL) | MIC (S. aureus MDR #1; [3]): >100 µM | MIC (E. coli ATCC 25922): 1.56 µM (≈ 3.41 µg/mL) | MIC (P. aeruginosa ATCC 25853): 3.12 µM (≈ 6.82 µg/mL) | MIC (S. aureus ATCC 25923; ATCC 25923): >100 µM | MIC (S. aureus MDR #2; MDR #2): 100 µM (≈ 218 µg/mL) | MIC [1]: 3.12 µM (≈ 6.82 µg/mL) | lethal dose causing 50% killing (LD50) (HaCaT cells): > 50 µM
